We go through 34 molecules from patent US10208066B2, “Imidazopyridazine compounds and their use” (HUTCHISON MEDIPHARMA LIMITED, priority 2014, dated 2019).

What all share (assay): Transcreener KINASE Assay, fluorescent determination of PI3K enzyme activity
What all share (format): biochemical

One assay concerns the target PI3K-δ (p110δ/p85α) (Homo sapiens (Human), UniProt O00329). As to conditions: for inhibition at 1 µM: read-out: PI3K-δ IH % (inhibition rate).
The target in a further assay is PI3K-γ (p110γ) (Homo sapiens (Human), UniProt P48736). As to conditions: for inhibition at 1 µM: read-out: PI3K-γ IH % (inhibition rate).
Chain of PI3K-γ (p110γ) (P48736 whole entry, species assumed): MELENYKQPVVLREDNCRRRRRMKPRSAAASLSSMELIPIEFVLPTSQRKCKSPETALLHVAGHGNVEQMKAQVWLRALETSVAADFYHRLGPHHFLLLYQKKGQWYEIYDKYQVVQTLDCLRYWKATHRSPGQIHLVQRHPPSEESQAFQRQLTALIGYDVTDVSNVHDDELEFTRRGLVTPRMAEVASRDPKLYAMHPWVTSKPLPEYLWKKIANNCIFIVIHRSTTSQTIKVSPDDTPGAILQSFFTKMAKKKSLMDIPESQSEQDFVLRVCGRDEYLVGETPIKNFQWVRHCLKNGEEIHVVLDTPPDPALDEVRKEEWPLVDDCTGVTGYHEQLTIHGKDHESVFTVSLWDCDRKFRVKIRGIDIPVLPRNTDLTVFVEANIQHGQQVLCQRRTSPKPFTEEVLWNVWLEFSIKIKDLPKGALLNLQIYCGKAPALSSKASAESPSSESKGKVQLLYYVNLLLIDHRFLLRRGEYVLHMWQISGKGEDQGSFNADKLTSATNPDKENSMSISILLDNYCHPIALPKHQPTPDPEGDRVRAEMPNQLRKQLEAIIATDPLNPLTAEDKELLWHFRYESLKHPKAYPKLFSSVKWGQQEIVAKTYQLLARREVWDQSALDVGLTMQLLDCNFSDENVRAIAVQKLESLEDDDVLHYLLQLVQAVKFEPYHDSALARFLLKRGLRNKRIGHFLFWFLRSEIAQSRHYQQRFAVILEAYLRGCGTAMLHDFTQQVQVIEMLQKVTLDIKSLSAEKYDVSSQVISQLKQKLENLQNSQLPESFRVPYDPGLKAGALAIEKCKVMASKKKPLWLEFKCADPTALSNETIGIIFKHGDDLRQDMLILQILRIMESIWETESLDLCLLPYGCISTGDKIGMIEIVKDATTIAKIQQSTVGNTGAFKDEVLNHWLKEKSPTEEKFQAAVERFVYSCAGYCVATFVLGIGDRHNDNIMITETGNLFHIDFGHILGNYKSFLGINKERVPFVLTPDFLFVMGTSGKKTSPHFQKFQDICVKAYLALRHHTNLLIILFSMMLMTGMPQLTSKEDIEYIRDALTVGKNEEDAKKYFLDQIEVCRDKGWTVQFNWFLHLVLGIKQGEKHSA
The target in a further assay is PI3K-β (Homo sapiens, UniProt P42338). As to conditions: for inhibition at 1 µM: read-out: PI3K-β IH % (inhibition rate); for inhibition at 1 µM / PI3K-β IH % (inhibition rate): at 1 μM.
Chain of PI3K-β (P42338 whole entry, looked up): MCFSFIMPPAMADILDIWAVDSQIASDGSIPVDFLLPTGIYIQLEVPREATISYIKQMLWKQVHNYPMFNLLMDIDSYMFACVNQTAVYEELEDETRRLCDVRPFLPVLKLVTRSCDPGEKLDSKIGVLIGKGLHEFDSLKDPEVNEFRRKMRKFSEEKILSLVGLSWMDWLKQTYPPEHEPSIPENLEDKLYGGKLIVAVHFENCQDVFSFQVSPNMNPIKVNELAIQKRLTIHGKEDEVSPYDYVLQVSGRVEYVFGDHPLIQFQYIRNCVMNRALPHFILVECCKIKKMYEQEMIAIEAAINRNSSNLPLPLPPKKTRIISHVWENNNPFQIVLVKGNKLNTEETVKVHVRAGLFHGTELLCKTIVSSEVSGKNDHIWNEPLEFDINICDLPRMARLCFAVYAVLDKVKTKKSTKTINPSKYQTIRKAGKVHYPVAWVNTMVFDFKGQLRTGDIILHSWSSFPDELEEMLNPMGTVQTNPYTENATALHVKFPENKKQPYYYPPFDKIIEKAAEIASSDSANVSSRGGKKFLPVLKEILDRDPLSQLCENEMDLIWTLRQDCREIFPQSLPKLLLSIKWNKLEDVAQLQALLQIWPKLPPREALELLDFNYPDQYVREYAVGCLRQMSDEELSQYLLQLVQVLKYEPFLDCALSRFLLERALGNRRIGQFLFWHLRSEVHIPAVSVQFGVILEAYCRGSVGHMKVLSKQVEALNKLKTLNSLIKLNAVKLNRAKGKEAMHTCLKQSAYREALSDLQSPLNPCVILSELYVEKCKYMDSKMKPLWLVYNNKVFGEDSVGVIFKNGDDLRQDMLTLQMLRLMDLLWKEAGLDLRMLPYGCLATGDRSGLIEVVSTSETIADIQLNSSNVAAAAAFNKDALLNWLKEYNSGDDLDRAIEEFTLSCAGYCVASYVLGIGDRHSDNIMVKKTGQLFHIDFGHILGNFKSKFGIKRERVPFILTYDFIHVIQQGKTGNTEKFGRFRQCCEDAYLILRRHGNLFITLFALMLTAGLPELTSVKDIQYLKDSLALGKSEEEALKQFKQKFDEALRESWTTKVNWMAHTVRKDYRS

Usually inhibition stands for the change of the read-out against control, counted positive when it falls. The IC50 is the concentration that gives 50% inhibition. Read a low IC50 as greater potency in that assay.

Where two headings read alike, the source gives them in different places.
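Wherever PI3K-β IH % (inhibition rate) is given: recombinant PI3K enzyme reaction, 80 min at room temperature, ADP formed detected by far-red competitive fluorescence polarization immunoassay, inhibition relative to ADP in 2% DMSO control wells.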
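Wherever PI3K-γ IH % (inhibition rate) is given: ADP produced by p110γ kinase reaction, 80 min at room temperature, detected by far-red fluorescence polarization immunoassay, inhibition relative to 2% DMSO control wells.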
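Wherever PI3K-δ IH % (inhibition rate) is given: ADP formed by the kinase detected via far-red competitive fluorescence polarization immunoassay after 80 min room-temperature reaction, inhibition relative to 2% DMSO wells.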

Chain of PI3K-δ (p110δ/p85α) (O00329 whole entry, species assumed): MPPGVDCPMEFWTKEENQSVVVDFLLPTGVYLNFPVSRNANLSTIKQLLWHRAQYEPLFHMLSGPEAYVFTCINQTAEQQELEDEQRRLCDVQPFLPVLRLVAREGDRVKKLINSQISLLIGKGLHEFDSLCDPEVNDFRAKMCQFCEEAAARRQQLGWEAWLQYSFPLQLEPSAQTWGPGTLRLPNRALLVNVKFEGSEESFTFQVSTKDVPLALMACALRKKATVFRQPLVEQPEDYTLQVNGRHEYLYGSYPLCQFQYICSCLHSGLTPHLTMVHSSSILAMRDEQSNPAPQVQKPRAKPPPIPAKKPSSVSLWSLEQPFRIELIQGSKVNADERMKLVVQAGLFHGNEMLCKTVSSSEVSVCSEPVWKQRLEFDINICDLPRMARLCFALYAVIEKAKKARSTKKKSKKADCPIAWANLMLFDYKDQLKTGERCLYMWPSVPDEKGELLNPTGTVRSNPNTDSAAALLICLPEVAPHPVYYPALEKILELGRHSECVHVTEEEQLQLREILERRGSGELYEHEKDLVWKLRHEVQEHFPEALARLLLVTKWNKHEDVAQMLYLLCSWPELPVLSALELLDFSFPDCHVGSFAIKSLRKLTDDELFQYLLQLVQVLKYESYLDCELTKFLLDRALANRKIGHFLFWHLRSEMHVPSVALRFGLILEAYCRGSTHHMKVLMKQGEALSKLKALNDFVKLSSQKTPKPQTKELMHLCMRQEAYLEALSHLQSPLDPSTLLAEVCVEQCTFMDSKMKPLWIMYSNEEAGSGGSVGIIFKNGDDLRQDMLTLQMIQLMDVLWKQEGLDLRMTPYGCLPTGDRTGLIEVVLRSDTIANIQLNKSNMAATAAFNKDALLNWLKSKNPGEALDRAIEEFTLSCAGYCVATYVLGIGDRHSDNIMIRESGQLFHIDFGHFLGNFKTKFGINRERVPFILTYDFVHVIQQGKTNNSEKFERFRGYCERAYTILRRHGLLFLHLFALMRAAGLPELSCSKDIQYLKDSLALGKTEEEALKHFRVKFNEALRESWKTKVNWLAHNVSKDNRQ
Chain of PI3K-δ (p110δ/p85α) (P27986 whole entry partner, species assumed): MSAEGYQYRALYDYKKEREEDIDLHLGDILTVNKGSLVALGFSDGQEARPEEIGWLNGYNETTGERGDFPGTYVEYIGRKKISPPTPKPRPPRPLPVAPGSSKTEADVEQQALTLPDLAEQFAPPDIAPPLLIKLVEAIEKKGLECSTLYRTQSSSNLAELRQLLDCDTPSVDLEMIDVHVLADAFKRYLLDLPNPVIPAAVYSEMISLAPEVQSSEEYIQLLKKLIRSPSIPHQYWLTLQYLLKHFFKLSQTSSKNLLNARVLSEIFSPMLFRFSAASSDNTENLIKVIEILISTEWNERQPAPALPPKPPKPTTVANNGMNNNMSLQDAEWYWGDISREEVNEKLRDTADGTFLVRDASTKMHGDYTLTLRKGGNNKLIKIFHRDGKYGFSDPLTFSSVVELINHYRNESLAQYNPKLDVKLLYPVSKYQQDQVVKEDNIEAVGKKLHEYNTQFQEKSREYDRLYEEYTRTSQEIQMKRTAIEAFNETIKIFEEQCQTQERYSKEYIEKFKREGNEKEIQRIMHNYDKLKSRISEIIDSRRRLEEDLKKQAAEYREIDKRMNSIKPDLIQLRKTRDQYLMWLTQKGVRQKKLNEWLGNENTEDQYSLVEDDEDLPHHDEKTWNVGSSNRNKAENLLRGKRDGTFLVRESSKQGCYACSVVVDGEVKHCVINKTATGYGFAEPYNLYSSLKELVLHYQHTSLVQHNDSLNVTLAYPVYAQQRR
Protocol for PI3K-β: (§1) It is a universal, homogenous, high throughput screening (HTS) technology using a far-red, competitive fluorescence polarization immunoassay based on the detection of ADP to monitor the activity of enzymes that catalyze group transfer reactions. […] The reaction mixture was added into desired wells of a 96-well plate. The plate was sealed and incubated for 80 min at room temperature. • 2) Next, 25 uL ADP detection mix was added into each well. The plate was sealed again and incubated for 60 min at room temperature. Then fluorescence polarization was measured by Tecan Infinite F500 Reader.
(§2) Data was analyzed and IC50 values were generated using the add-in software for Microsoft Excel, Xlfit™ (version 5.3).
(§3) Inhibition rates were calculated as follow: IH %=(ADP amount under 2% DMSO well−ADP amount under test compound well)/ADP amount under 2% DMSO well×100%.
Protocol for PI3K-γ (p110γ): as §1, §2, §3
Protocol for PI3K-δ (p110δ/p85α): as §1, §2, §3

Consider `C[C@@H](Nc1ncnc(N)c1C#N)c1cc2ncc(Cl)n2nc1-c1ccccn1` [Compound 7, (R)-4-amino-6-((1-(3-chloro-6-(pyridin-2-yl)imidazo[1,2-b]pyridazin-7-yl)ethyl)amino)pyrimidine-5-carbonitrile], for which the inhibition at 1 µM is 12.5% at PI3K-δ (p110δ/p85α), -2.3% at PI3K-γ (p110γ) (at 1 μM) and -2.7% at PI3K-β.
The molecule `C[C@H](Nc1ncnc(N)c1C#N)c1cc2ncc(Cl)n2nc1-c1ccncc1` [Compound 73] registered an IC50 against PI3K-δ (p110δ/p85α) of 0.082 µM. Further, the inhibition at 1 µM on PI3K-γ (p110γ) (at 1 μM) was 62.8%; at PI3K-β, 60.8%.
For `C[C@@H](Nc1ncnc(N)c1C#N)c1cc2ncc(Cl)n2nc1-c1ccccc1` [Compound 3, (R)-4-amino-6-((1-(3-chloro-6-phenylimidazo[1,2-b]pyridazin-7-yl)ethyl)amino)pyrimidine-5-carbonitrile], on PI3K-γ (p110γ) (at 1 μM), the inhibition at 1 µM is 6.9%.
Consider `C[C@H](Nc1ncnc(N)c1C#N)c1cc2ncc(Cl)n2nc1-c1ccc(F)c(F)c1` [Compound 63], for which the IC50 against PI3K-δ (p110δ/p85α) came to 0.006 µM; against PI3K-γ (p110γ) it was 0.105 µM. Further, the inhibition at 1 µM on PI3K-β came to 48.1%.
For `C[C@H](Nc1ncnc(N)c1C(=O)N(C)C)c1cc2ncc(Cl)n2nc1-c1ccccc1` [Compound 56], the results for the inhibition at 1 µM at PI3K-δ (p110δ/p85α), on PI3K-γ (p110γ) (at 1 μM) and on PI3K-β were 21%, 1% and 9%, respectively.
On PI3K-δ (p110δ/p85α), `COc1ccc(-c2c(N)ncnc2N[C@@H](C)c2cc3ncc(Cl)n3nc2-c2ccccc2)cn1` [Compound 39] returned an IC50 of 0.073 µM. Also, the figures for the inhibition at 1 µM at PI3K-γ (p110γ) (at 1 μM) and on PI3K-β were 28.1% and -4.4%, respectively.
For `C[C@H](Nc1ncnc(N)c1C#N)c1cc2ncc(Cl)n2nc1-c1ccc2ccccc2c1` [Compound 71], it took 0.129 µM to reach half-maximal inhibition against PI3K-δ (p110δ/p85α) (IC50). Further, the inhibition at 1 µM on PI3K-γ (p110γ) (at 1 μM) stood at 32.6%; at PI3K-β it was 35.2%.
As to `CC[C@@H](Nc1ncnc2[nH]cnc12)c1cc2ncc(Cl)n2nc1-c1cccc(F)c1` [Compound 44], the IC50 against PI3K-δ (p110δ/p85α) was 0.283 µM. Also, the inhibition at 1 µM on PI3K-γ (p110γ) (at 1 μM) stood at 36%; on PI3K-β, 18.8%.
In the case of `C[C@H](Nc1nc[n+]([O-])c(N)c1C#N)c1cc2ncc(Cl)n2nc1-c1ccccc1` [Compound 51, (S)-6-amino-4-((1-(3-chloro-6-phenylimidazo[1,2-b]pyridazin-7-yl)ethyl)amino)-5-cyanopyrimidine 1-oxide], the inhibition at 1 µM on PI3K-γ (p110γ) is 36.7%; at PI3K-β, -15.5%.
As for `C[C@H](Nc1ncnc(N)c1C#N)c1cc2ncc(Cl)n2nc1-c1ccc2c(c1)OCCO2` [Compound 70], the inhibition at 1 µM on PI3K-β was 37.4%.
For `C[C@H](Nc1ncnc(N)c1C#N)c1cc2ncc(Cl)n2nc1-c1cccc(O)c1` [Compound 54], the figures for the 50% inhibitory concentration (IC50) at PI3K-δ (p110δ/p85α), against PI3K-γ (p110γ) and at PI3K-β were 0.002 µM, 0.226 µM and 0.009 µM, respectively.
With `C[C@H](Nc1ncnc(N)c1C#N)c1cc2ncc(Cl)n2nc1-c1ccc2ccn(C)c2c1` [Compound 76], the inhibition at 1 µM at PI3K-δ (p110δ/p85α) was 48.9%; on PI3K-γ (p110γ) (at 1 μM) it was -14.3%; on PI3K-β, 54.9%.
Regarding `C[C@H](Nc1ncnc(N)c1-c1cnn(C)c1)c1cc2ncc(Cl)n2nc1-c1ccccc1` [Compound 57], half-maximal inhibition on PI3K-δ (p110δ/p85α) (IC50) was put at 0.062 µM. In addition, the inhibition at 1 µM on PI3K-γ (p110γ) (at 1 μM) amounted to 30.3%; on PI3K-β, 6.3%.
`CCC(Nc1ncnc2[nH]cnc12)c1cc2ncc(Cl)n2nc1-c1ccccc1F` (single isomer, unassigned) [Compound 26]: the inhibition at 1 µM on PI3K-γ (p110γ) (at 1 μM) came to 8%. The “PI3K-β IH % (inhibition rate)” value on PI3K-β is −7.5%.
The molecule `C[C@H](Nc1ncnc(N)c1-c1cccc(F)c1)c1cc2ncc(Cl)n2nc1-c1ccccc1` [Compound 37, (S)—N^4-(1-(3-chloro-6-phenylimidazo[1,2-b]pyridazin-7-yl)ethyl)-5-(3-fluorophenyl)pyrimidine-4,6-diamine] showed an IC50 against PI3K-δ (p110δ/p85α) of 0.288 µM. Further, the inhibition at 1 µM at PI3K-γ (p110γ) (at 1 μM) is 27.5%; on PI3K-β, -0.4%.
The molecule `C[C@@H](c1cc2ncc(Cl)n2nc1-c1ccccc1)N(C)c1ncnc(N)c1C#N` [Compound 42, (S)-4-amino-6-((1-(3-chloro-6-phenylimidazo[1,2-b]pyridazin-7-yl)ethyl)(methyl)amino)pyrimidine-5-carbonitrile] registered an IC50 at PI3K-δ (p110δ/p85α) of 0.339 µM. Also, the inhibition at 1 µM on PI3K-γ (p110γ) (at 1 μM) turned out to be 18.2%; at PI3K-β it was 7.4%.
`CC[C@@H](Nc1ncnc(N)c1C#N)c1cc2ncc(Cl)n2nc1-c1cccc(F)c1` [Compound 43, (R)-4-amino-6-((1-(3-chloro-6-(3-fluorophenyl)imidazo[1,2-b]pyridazin-7-yl)propyl)amino)pyrimidine-5-carbonitrile] yielded an IC50 at PI3K-δ (p110δ/p85α) of 0.132 µM. The values for the inhibition at 1 µM on PI3K-γ (p110γ) (at 1 μM) and on PI3K-β were 27.2% and 23.6%, respectively.
On to `C[C@H](Nc1ncnc(N)c1C#N)c1cc2ncc(Cl)n2nc1-c1ccsc1` [Compound 60], for which the IC50 was determined as 0.001 µM at PI3K-δ (p110δ/p85α), 0.048 µM on PI3K-γ (p110γ) and 0.034 µM against PI3K-β.
For `Cc1nnc(-c2c(N)ncnc2N[C@@H](C)c2cc3ncc(Cl)n3nc2-c2ccccc2)o1` [Compound 81, (S)—N^4-(1-(3-chloro-6-phenylimidazo[1,2-b]pyridazin-7-yl)ethyl)-5-(5-methyl-1,3,4-oxadiazol-2-yl)pyrimidine-4,6-diamine], the IC50 at PI3K-δ (p110δ/p85α) turned out to be 0.002 µM; at PI3K-γ (p110γ), 0.098 µM.
For the molecule `C[C@H](Nc1ncnc(N)c1C#N)c1cc2ncc(Cl)n2nc1-c1ccccc1F` [Compound 12], the figures for the IC50 against PI3K-δ (p110δ/p85α), on PI3K-γ (p110γ) and against PI3K-β were 0.002 µM, 0.55 µM and 0.08 µM, respectively.
As for `C[C@H](Nc1nc(N)ncc1C#N)c1cc2ncc(Cl)n2nc1-c1ccccc1` [Compound 34], the inhibition at 1 µM is 8.3% on PI3K-δ (p110δ/p85α), -19.3% on PI3K-γ (p110γ) (at 1 μM) and 3.7% at PI3K-β.
Molecule `CNc1ncnc(N[C@@H](C)c2cc3ncc(Cl)n3nc2-c2ccccc2)c1C#N` [Compound 33, (S)-4-((1-(3-chloro-6-phenylimidazo[1,2-b]pyridazin-7-yl)ethyl)amino)-6-(methylamino)pyrimidine-5-carbonitrile] had an IC50 against PI3K-δ (p110δ/p85α) of 0.288 µM. The inhibition at 1 µM on PI3K-γ (p110γ) (at 1 μM) is -6.9%; at PI3K-β, 2.2%.
Take `C[C@H](Nc1ncnc(N)c1C#N)c1cc2ncc(Cl)n2nc1-c1ccccc1O` [Compound 69, (S)-4-amino-6-((1-(3-chloro-6-(2-hydroxyphenyl)imidazo[1,2-b]pyridazin-7-yl)ethyl)amino)pyrimidine-5-carbonitrile]: the IC50 against PI3K-δ (p110δ/p85α) stood at 0.001 µM.
As for `CC(Nc1ncnc(N)c1C#N)c1cc2nccn2nc1-c1ccccc1` (stereo not drawn) [Compound 1, 4-amino-6-((1-(6-phenylimidazo[1,2-b]pyridazin-7-yl)ethyl)amino)pyrimidine-5-carbonitrile], at PI3K-δ (p110δ/p85α), half-maximal inhibition (IC50) required 0.028 µM. The inhibition at 1 µM at PI3K-γ (p110γ) came to 16.1%; on PI3K-β, 28.1%.
For `C[C@H](Nc1ncnc(N)c1C#N)c1cc2ncc(Cl)n2nc1-c1ccc(O)cc1` [Compound 49], the IC50 on PI3K-δ (p110δ/p85α) came to 0.001 µM; against PI3K-γ (p110γ), 0.146 µM; against PI3K-β, 0.001 µM.
Regarding `CCC(Nc1ncnc(N)c1C#N)c1cc2ncc(Cl)n2nc1-c1ccccn1` (stereo not drawn) [Compound 28], the values for the inhibition at 1 µM on PI3K-δ (p110δ/p85α), on PI3K-γ (p110γ) (at 1 μM) and at PI3K-β were 39.8%, 18.8% and 11.1%, respectively.
In the case of `CC(Nc1ncnc2[nH]cnc12)c1cc2ncc(Cl)n2nc1-c1ccccc1` (single isomer, unassigned) [Compound 11], the IC50 against PI3K-δ (p110δ/p85α) is 0.003 µM; against PI3K-γ (p110γ), 0.094 µM. Besides, on PI3K-β, the inhibition at 1 µM is 55.7%.
`C[C@H](Nc1nc(O)nc(N)c1C#N)c1cc2ncc(Cl)n2nc1-c1ccccc1` [Compound 55, (S)-4-amino-6-((1-(3-chloro-6-phenylimidazo[1,2-b]pyridazin-7-yl)ethyl)amino)-2-hydroxypyrimidine-5-carbonitrile]: the inhibition at 1 µM on PI3K-δ (p110δ/p85α) is 60.3%; at PI3K-γ (p110γ) (at 1 μM), -4.7%; on PI3K-β, 8.5%.
Regarding `C[C@H](Nc1ncnc(N)c1C#N)c1cc2ncc(Cl)n2nc1-c1ccc(Cl)c(F)c1` [Compound 64], the results for the IC50 on PI3K-δ (p110δ/p85α) and against PI3K-γ (p110γ) were 0.048 µM and over 0.333 µM, respectively. Also, the inhibition at 1 µM at PI3K-β amounted to 44.1%.
Consider `CC(Nc1ncnc2[nH]cc(C#N)c12)c1cc2ncc(Cl)n2nc1-c1ccccc1` (single isomer, unassigned) [Compound 9], for which the IC50 on PI3K-δ (p110δ/p85α) is 0.002 µM; against PI3K-γ (p110γ) it was 0.046 µM; at PI3K-β, 0.158 µM.
`C[C@H](Nc1ncnc(N)c1C(=O)O)c1cc2ncc(Cl)n2nc1-c1ccccc1` [Compound 52, (S)-4-amino-6-((1-(3-chloro-6-phenylimidazo[1,2-b]pyridazin-7-yl)ethyl)amino)pyrimidine-5-carboxylic acid]: half-maximal inhibition on PI3K-δ (p110δ/p85α) (IC50) was put at 0.08 µM. Also, the values for the inhibition at 1 µM on PI3K-γ (p110γ) and at PI3K-β were -26.1% and -6.3%, respectively.
For `COc1cc(-c2c(N)ncnc2N[C@@H](C)c2cc3ncc(Cl)n3nc2-c2ccccc2)ccn1` [Compound 50], the inhibition at 1 µM at PI3K-δ (p110δ/p85α) is 68.9%; on PI3K-γ (p110γ) (at 1 μM) it was 5.5%; on PI3K-β it was -14.1%.
As for `C[C@H](Nc1ncnc(N)c1C#N)c1cc2ncc(Cl)n2nc1-c1cccc(C(C)(C)O)c1` (single isomer, unassigned) [Compound 79, (chiral)-4-amino-6-((1-(3-chloro-6-(3-(2-hydroxypropan-2-yl)phenyl)imidazo[1,2-b]pyridazin-7-yl)ethyl)amino)pyrimidine-5-carbonitrile], the “PI3K-γ IH % (inhibition rate)” value at PI3K-γ (p110γ) (at 1 μM) is 56.2%. In addition, the “PI3K-β IH % (inhibition rate)” value on PI3K-β stood at 43.8%.
Regarding `C[C@H](Nc1ncnc(N)c1C#N)c1cc2ncc(F)n2nc1-c1ccccc1` [Compound 78], the inhibition at 1 µM at PI3K-β turned out to be 50.1%.
